Results on eight compounds are retold here after ChEMBL document CHEMBL1133098, “Subtype-selective N-methyl-D-aspartate receptor antagonists: benzimidazalone and hydantoin as phenol replacements” (J Med Chem, 2000).

Assay type in all cases: cell-based, Oocyte
Test [1] concerns the target Glutamate NMDA receptor; Grin1/Grin2a (Rattus norvegicus, UniProt P35439+Q00959). Briefly: In vitro inhibition of NMDA responses at NR1A/2A receptor expressed in Xenopus oocytes.
In test [2] the target is Glutamate receptor ionotropic, NMDA 2C (Rattus norvegicus, UniProt P35439+Q00961). Briefly: In vitro inhibition of NMDA responses at NR1A/2C receptor expressed in Xenopus oocytes.
Sequence of Glutamate receptor ionotropic, NMDA 2C (Q00961 whole entry, one chain of several): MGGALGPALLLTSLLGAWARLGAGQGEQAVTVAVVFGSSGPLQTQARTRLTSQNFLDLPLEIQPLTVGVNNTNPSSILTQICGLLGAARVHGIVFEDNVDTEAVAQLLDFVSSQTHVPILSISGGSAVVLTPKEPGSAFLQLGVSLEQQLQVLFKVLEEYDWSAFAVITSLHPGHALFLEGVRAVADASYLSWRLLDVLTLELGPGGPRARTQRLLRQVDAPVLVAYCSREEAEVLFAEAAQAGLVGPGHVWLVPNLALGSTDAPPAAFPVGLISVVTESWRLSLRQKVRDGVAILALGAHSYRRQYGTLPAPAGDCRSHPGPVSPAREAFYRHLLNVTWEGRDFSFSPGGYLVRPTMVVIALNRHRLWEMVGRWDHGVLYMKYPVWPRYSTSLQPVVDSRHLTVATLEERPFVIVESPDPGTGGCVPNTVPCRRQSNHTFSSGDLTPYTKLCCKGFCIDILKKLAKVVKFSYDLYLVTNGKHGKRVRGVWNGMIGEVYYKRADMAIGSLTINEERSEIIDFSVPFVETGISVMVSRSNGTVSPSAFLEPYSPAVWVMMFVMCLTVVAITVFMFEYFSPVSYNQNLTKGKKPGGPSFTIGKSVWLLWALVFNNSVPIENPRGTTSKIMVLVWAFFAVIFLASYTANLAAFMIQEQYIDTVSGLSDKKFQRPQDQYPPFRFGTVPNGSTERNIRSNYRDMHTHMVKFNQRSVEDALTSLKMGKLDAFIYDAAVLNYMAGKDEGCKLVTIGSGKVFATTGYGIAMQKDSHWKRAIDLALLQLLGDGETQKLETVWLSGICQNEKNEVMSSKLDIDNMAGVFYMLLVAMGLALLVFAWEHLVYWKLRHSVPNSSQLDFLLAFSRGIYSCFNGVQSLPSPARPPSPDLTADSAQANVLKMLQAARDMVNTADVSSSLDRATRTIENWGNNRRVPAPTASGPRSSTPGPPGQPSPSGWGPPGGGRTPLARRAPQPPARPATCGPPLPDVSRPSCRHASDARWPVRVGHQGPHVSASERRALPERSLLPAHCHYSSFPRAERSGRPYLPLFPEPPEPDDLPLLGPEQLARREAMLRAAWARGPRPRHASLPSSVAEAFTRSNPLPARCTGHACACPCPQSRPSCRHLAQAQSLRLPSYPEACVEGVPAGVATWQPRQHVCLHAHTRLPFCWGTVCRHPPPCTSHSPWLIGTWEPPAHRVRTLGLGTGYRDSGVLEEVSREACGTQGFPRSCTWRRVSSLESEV
The target in test [3] is Glutamate NMDA receptor; Grin1/Grin2b (Rattus norvegicus, UniProt P35439+Q00960). Briefly: In vitro inhibition of NMDA responses at NR1A/2B receptor expressed in Xenopus oocytes.
Sequence of Glutamate NMDA receptor; Grin1/Grin2b (Q00960 whole entry, looked up, other chains not shown): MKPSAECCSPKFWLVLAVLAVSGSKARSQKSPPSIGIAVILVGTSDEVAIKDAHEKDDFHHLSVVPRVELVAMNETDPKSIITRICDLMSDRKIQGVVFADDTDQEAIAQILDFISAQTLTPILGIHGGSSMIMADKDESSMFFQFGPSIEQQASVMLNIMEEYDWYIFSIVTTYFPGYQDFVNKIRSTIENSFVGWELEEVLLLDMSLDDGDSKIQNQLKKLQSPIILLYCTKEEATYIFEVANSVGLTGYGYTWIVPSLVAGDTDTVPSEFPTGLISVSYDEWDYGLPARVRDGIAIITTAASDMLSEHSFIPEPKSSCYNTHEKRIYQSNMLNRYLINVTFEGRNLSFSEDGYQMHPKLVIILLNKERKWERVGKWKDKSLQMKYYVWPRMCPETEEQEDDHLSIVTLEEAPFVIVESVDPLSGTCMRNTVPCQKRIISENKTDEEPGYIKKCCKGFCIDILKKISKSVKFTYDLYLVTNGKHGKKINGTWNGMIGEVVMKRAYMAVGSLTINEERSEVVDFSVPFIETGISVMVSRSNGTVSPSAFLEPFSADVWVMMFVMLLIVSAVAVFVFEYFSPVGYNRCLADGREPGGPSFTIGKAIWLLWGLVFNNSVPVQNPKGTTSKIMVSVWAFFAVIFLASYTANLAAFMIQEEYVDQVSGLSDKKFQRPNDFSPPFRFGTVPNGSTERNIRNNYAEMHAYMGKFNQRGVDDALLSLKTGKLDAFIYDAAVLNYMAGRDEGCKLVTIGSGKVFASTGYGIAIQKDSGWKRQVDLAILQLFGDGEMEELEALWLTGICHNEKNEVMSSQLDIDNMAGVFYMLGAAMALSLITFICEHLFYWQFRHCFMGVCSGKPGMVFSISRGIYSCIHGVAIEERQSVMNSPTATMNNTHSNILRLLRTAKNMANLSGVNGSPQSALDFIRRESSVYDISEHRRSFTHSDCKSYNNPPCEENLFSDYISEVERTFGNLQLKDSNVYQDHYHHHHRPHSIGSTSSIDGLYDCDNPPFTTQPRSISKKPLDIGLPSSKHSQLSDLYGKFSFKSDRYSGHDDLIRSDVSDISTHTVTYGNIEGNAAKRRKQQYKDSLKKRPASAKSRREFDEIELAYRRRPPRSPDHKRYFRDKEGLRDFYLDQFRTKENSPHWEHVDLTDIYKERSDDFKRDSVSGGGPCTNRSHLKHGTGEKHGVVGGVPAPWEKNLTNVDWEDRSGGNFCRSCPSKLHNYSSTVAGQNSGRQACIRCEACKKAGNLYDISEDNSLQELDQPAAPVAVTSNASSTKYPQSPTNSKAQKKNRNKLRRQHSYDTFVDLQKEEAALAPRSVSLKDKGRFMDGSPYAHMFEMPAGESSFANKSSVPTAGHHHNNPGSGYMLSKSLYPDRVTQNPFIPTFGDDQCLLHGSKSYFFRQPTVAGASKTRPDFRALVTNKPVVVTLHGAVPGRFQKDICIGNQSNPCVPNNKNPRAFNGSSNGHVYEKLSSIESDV

Molecules are shown by their SMILES.

As a reminder, the IC50 is the point on the concentration scale where inhibition reaches its midpoint.

Sequence of Glutamate NMDA receptor; Grin1/Grin2a (Q00959 whole entry, looked up, other chains not shown): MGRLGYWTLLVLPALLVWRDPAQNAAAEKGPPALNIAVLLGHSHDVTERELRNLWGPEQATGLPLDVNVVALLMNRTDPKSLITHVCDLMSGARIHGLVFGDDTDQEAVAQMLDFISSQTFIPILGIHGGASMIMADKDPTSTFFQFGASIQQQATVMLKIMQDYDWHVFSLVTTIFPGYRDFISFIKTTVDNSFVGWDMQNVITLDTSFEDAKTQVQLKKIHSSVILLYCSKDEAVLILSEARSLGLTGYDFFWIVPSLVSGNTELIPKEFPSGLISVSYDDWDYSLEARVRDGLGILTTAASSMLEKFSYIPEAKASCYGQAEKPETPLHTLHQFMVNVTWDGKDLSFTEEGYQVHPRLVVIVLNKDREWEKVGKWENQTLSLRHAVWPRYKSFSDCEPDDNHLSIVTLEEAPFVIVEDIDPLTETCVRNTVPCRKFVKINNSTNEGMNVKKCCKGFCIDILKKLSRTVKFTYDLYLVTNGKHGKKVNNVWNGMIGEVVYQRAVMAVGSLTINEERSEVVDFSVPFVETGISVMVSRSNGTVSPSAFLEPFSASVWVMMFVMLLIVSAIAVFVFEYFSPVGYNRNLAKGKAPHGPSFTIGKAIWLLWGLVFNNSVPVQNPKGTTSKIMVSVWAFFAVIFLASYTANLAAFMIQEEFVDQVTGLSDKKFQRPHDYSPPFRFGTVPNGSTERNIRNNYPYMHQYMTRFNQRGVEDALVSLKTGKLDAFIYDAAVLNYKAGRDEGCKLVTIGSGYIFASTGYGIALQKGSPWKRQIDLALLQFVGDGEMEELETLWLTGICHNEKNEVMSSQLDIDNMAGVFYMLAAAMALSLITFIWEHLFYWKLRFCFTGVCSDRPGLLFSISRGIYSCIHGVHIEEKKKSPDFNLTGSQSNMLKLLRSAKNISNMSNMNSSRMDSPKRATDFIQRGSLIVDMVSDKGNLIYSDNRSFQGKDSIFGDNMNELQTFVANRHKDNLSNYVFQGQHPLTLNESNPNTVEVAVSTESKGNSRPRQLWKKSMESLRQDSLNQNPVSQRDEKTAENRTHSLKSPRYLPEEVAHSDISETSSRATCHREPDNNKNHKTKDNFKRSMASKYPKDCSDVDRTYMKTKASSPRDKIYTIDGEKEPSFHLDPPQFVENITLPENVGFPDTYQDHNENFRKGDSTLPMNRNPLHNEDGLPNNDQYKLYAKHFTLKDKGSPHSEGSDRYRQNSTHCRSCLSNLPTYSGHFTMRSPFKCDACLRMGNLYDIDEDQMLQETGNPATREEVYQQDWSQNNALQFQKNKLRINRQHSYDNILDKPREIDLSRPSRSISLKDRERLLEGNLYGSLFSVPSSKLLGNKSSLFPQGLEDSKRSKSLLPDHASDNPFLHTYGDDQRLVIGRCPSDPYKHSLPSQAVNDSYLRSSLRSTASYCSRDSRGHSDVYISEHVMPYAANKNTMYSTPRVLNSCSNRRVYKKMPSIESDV

Turning to `O=c1[nH]c2ccccc2n1CCCN1CCC(Cc2ccc(F)cc2)CC1`, the IC50 was > 100 µM in test [1], > 100 µM in test [2] and 0.11 µM in test [3].
As for `Oc1nc2ccccc2n1CCCCN1CCC(Cc2ccccc2)CC1`, the figures for the IC50 in test [1], in test [2] and in test [3] were > 100 µM, > 100 µM and 3.4 µM, respectively.
For the compound `O=c1[nH]c2ccccc2n1CCCCCN1CCC(Cc2ccccc2)CC1`, the IC50 is > 100 µM in test [1], > 100 µM in test [2] and 11 µM in test [3].
Consider `O=C1CNC(=O)N1CCCN1CCC(Cc2ccccc2)CC1`, for which the values for the IC50 in test [1], in test [2] and in test [3] were > 100 µM, > 100 µM and 27 µM, respectively.
Turning to `O=C1CNC(=O)N1CCCCN1CCC(Cc2ccccc2)CC1`, the IC50 was > 100 µM in test [1], > 100 µM in test [2] and 10 µM in test [3].
Regarding `O=c1[nH]c2ccccc2n1CCCN1CCC(Cc2ccccc2)CC1`, the IC50 in test [1] was > 100 µM; in test [2], > 100 µM; in test [3], 0.095 µM.
In the case of `Oc1ccc(OCCN2CCC(Cc3ccccc3)CC2)cc1`, the IC50 in test [1] and in test [2] was > 100 µM each time.
On to `O=C1CNC(=O)N1CCCCCN1CCC(Cc2ccccc2)CC1`, for which the figures for the IC50 in test [1], in test [2] and in test [3] were 88 µM, > 100 µM and 49 µM, respectively.
